Columns and labels:
[1] = Six-week double-blind placebo-controlled Phase 2 study, safety and tolerability; format: in vivo, human
Experimental: Subjects were evaluated for safety parameters prior to and throughout the trial by a variety of measures including electrocardiogram, physical examination, vital signs and body weight, and clinical laboratory testing including a lipid panel, CBC with differential and urinalysis, Samples were drawn to assess total bilirubin, alkaline phosphatase, ALT (SGPT), AST (SGOT), blood urea nitrogen (BUN), creatinine, glucose, uric acid, calcium, phosphorus, total protein, albumin, total cholesterol, LDL, HDL, triglycerides, sodium, potassium, bicarbonate, chloride, GGT and creatine kinase, Hepatitis B, C and HIV serologies, TSH, drug screen and serum pregnancy test for females.
(§1) • Visits and evaluations were performed according to the following schedule of events: • Visit 1: Screening Visit: • The following was obtained/performed at the Screening Visit (Visit 1): • Written informed consent • Medical history including: • Relevant demographic information • Detailed medical and surgical history, including review of systems • Whenever possible, the patient's medical history was confirmed by medical records. • Prior medication: Medication taken by the patients 30 days prior to the Screening Visit was recorded. • AE assessment • Height (cm) • Weight (kg); BMI was determined and was ≤35 for the patient to be randomized • Complete physical examination • MINI diagnostic exam • Vital signs (respiratory rate, oral temperature (° C.), blood pressure, pulse). […] The capsules were taken for 7 days prior to the Baseline/Day 1 Visit (Visit 3). The first dose of placebo was taken at the clinic with 240 mL of water after a light meal. • Patients were provided with a diary to record the date, time and dosage of each dose.
(§2) Efficacy was determined by measuring the change from baseline in the Montgomery-Åsberg Depression Rating Scale (MADRS), the HAMD-17, the Clinical Global Impression Global Improvement Scale (CGI-I), the Clinical Global Impression-Severity scale (CGI-S) and the Derogatis Interview for Sexual Functioning Self-Report (DISF-SR). […] Comparisons between treatment groups based on MADRS (the primary efficacy parameter), HAMD-17, Anhedonia, DISF-SR, CGI-I and CGI-S scores were analyzed using a mixed-repeated measures (MMRM) analysis model including factors for Subject, Visit, Treatment Arm and Baseline value as a covariate. Adjusted least-squares means from these models are presented. Comparisons between groups were made at each post-baseline visit using model-based contrasts and adjusted degrees of freedom. For these analyses no explicit data imputations were made prior to the analysis. Response and remission categorical data were analyzed using chi-square tests. Inferential analyses of safety data were conducted with ANOVA models or chi-square tests. Two-tail alpha was set to 0.05. All analyses were conducted using SAS version 9.2.

[2] = system: patients with Major Depressive Disorder; test: Six-week double-blind placebo-controlled Phase 2 study, efficacy; format: in vivo, human
From the text: Subjects were identified who were between the ages of 18-65 (inclusive), and met criteria for Major Depressive Disorder in accordance with the Diagnostic and Statistical manual of Mental Disorders-IV-TR and confirmed by the MINI International Neuropsychiatric Interview.
Subjects were required to refrain from taking antidepressants, anticonvulsants including gabapentin and pregabalin, neuroleptics, MAO inhibitors, barbiturates, benzodiazepines, stimulants, antipsychotics, lithium, anxiolytics and beta blockers starting two weeks prior to the study and continuing until after the follow-up visit.
as §1, §2

symptoms of depression = details: eight weeks of treatment; Sepracor Press Release, Jul. 1, 2009; cited from earlier work

| SMILES | percentage of patients who reported an adverse treatment event ([1]; 10 patients, placebo 11 or 39.28%) [%] | Treatment-Emergent Adverse Events: Abdominal Pain (NOS) (% of Patients) ([1]; n = 33) | Treatment-Emergent Adverse Events: Anxiety (% of Patients) ([1]; n = 33) | Treatment-Emergent Adverse Events: Diarrhea NOS (% of Patients) ([1]; n = 33) | Treatment-Emergent Adverse Events: Emotional Disturbance NOS (% of Patients) ([1]; n = 33) | Treatment-Emergent Adverse Events: Headache NOS (% of Patients) ([1]; n = 33) | Treatment-Emergent Adverse Events: Irritability (% of Patients) ([1]; n = 33) | Treatment-Emergent Adverse Events: Nausea (% of Patients) ([1]; n = 33) | Treatment-Emergent Adverse Events: Rash NOS (% of Patients) ([1]; n = 33) | Treatment-Emergent Adverse Events: Upper Respiratory Tract Infection NOS (% of Patients) ([1]; n = 33) | patients who discontinued the study early due to AEs ([1]; same number in the placebo group) | serious AEs ([1]; six-week study) | Response rate, MADRS ([2]; Visit 8, LOCF, Completers, 100 mg, 50% reduction or more of baseline total score, 8/20) [%] | Response rate, HAMD-17 ([2]; Visit 8, LOCF, Completers, 100 mg, 50% reduction or more of baseline total score, 11/20) [%] | Remission rate, HAMD-17 ([2]; Visit 8, LOCF, Completers, 100 mg, HAMD-17 ≤ 7, 4/20) [%] | Remission rate, MADRS ([2]; Visit 8, LOCF, Completers, 100 mg, MADRS ≤ 12, 6/20) [%] | CGI-S LS mean, Difference placebo vs drug ([2]; Visit 8, MMRM, MITT, 95% CI (−0.21, 0.66), P = 0.306) | overall statistical effect size (Cohen's d), MADRS total score vs placebo ([2]; Week 6, MMRM) | primary efficacy endpoint compared to placebo (reduction in symptoms of depression, 17-item HAM-D) (symptoms of depression) |
| --- | --- | --- | --- | --- | --- | --- | --- | --- | --- | --- | --- | --- | --- | --- | --- | --- | --- | --- | --- |
| Clc1ccc([C@]23CNC[C@H]2C3)cc1Cl [(+)-1-(3,4-dichlorophenyl)-3-azabicyclo[3.1.0]hexane] | 30.30 | 2 (6.06%) | 2 (6.06%) | 2 (6.06%) | 2 (6.06%) | 3 (9.09%) | 2 (6.06%) | 2 (6.06%) | 2 (6.06%) | 2 (6.06%) | Two | no serious AEs were reported | 40.00 | 55.00 | 20.00 | 30.00 | 0.22 | −0.63 |  |
| N[C@@H]1CC[C@@H](c2ccc(Cl)c(Cl)c2)c2ccccc21 [SEP-225289] |  |  |  |  |  |  |  |  |  |  |  |  |  |  |  |  |  |  | did not meet the primary efficacy endpoint compared to placebo |

— US20190358199A1 (priority 2010, published 2019)
